Converted amounts (≈) assume the structure as drawn. Where two headings read alike, the source gives them in different places.
Columns and labels:
octopine dehydrogenase [1] = settings: known substrate specificity; cited from earlier work
Solubility in H2O = type: physicochemical; settings: water, 22° C.
[2] = Conversion (cyclization) of nopaline / isonopaline to the pyro-derivatives; rate of formation; type: physicochemical; settings: for cyclization: above pH 5.5; for reaction rate constant: conversion to pyro-derivative; for first order rate constant, formation of pyrrolidonecarboxylic acid derivative: pH 3.2, 60° C.; for time to completion of conversion to the pyrrolidonecarboxylic acid derivative: pH 3.2, 120° C. (autoclave)
[3] = tested on: A. tumefaciens (strain C-58); test: Growth of A. tumefaciens (turbidity A650, doubling time) with compound as source of carbon and nitrogen; type: cell-based; settings: for Doubling Time: 0.0045 g/ml in control medium; for utilization as a source of carbon and nitrogen: preinduced and uninduced bacteria
Protocol: The minimal medium for bacterial growth was the mineral salt mixture described by Petit and Tempe, hereinbefore cited to which glucose was aded to make the final concentration 0.005 g/ml. The control medium was the mineral salt mixture from which the ammonium sulfate was omitted. In order to test whether they would support bacterial growth either nopaline, isonopaline, or the pyrrolidonecarboxylic acid derivative of nopaline or pyronopaline were added separately to the control medium to make the final concentration 0.0045 g/ml.
A single colony from a plate on minimal medium was adapted to liquid medium that contained nopaline. When visibly turbid, the nopaline liquid culture was innoculated (1% innoculum) into minimal liquid medium and into nopaline liquid medium. When turbid, these two cultures were used as inoculum to test the nopaline, isonopaline and pyronopaline in liquid culture media (20 ml in 125 ml flasks). After innoculation (1%), cultures were agitated on a rotary shaker at 1 cycle per second, and growth was monitored by measurement of the turbidity in a spectrophotometer. The turbidity (A650) readings were plotted on log paper and the doubling time was determined from the logarithmic portion of the growth curve (Table II).
Table II contains the results of experiments to test the ability of A. tumefaciens (strain C-58) to utilize the isomers and derivatives of nopaline as a source of carbon and nitrogen. […] The results are the same for both preinduced and uninduced bacteria. As expected the doubling time in minimal medium is greater than that in either nopaline or pyronopaline, since metabolism by the organism is more complex in the […] medium.

octopine dehydrogenase [4] = test: Oxidation catalyzed by octopine dehydrogenase; type: biochemical, scallops (Pecten maximus); settings: nopaline / isonopaline as substrate
[5] = Stability in bacteria-free tumor extract; type: physicochemical; settings: pH 5.3, 10 days, room temperature
[6] = Reverse reaction (stability) of the pyrrolidonecarboxylic acid derivative of nopaline at 100° C.; type: physicochemical; settings: 100° C. in NaOH, Na2CO3 (both at 0.1M), or HCl (3M)

SMILES | oxidation catalyzed by octopine dehydrogenase (octopine dehydrogenase [1]) | solubility (Solubility in H2O) [mg/mL] | time for completed conversion to the pyro-derivative ([2]; 60° C., pH 3.2) | cyclization [2] | reaction rate constant [2] [s⁻¹] | first order rate constant, formation of pyrrolidonecarboxylic acid derivative [2] | time to completion of conversion to the pyrrolidonecarboxylic acid derivative [2] [min] | Doubling Time ([3]; Preinduced Innoculum) | Doubling Time ([3]; Uninduced Innoculum) | utilization as a source of carbon and nitrogen [3] | oxidation catalyzed by octopine dehydrogenase (octopine dehydrogenase [4]) | relative rate of reaction of nopaline vs isonopaline ([2]; 22° C. and 100° C.) | time of conversion to the pyro-derivative ([2]; 60° C.) [h] | time for completed conversion to the pyro-derivative ([2]; 100° C., pH 0.0) | time for quantitative conversion to the pyro-derivative ([2]; 100° C., pH 3.2) | time of conversion to the pyro-derivative ([2]; 121° C.) | conversion to the pyro-derivatives ([2]; pH above approximately 5.5, 48 hours at 100° C.) | change of concentration in tumor extract [5] | reverse reaction [6]
C[C@@H](N[C@@H](CCCNC(=N)N)C(=O)O)C(=O)O [D-octopine] | catalyzes the oxidation of D-octopine |  |  |  |  |  |  |  |  |  |  |  |  |  |  |  |  |  | 
N=C(N)NCCC[C@H](N[C@@H](CCC(=O)O)C(=O)O)C(=O)O [Isonopaline] |  | 21.3 (≈ 70 mM) | approximately 100 hours | neither nopaline nor isonopaline is demonstrable | 3.5e-08 | 0.35×10^-7 S^-1 | 30 | no growth | no growth | completely ineffective | not that of isonopaline |  |  |  |  |  |  |  | 
C[C@H](N[C@@H](CCCNC(=N)N)C(=O)O)C(=O)O [L-allooctopine] | not of L-allooctopine |  |  |  |  |  |  |  |  |  |  |  |  |  |  |  |  |  | 
N=C(N)NCCC[C@H](N[C@H](CCC(=O)O)C(=O)O)C(=O)O [Nopaline, N-(4-((aminoiminomethyl)amino-)-1S-carboxybutyl)-2R-2-pentanedioic acid] |  | 6.3 (≈ 20.7 mM) |  | neither nopaline nor isonopaline is demonstrable | 4.6e-07 | 4.6×10^-7 S^-1 | 30 | 2.8 h | 2.8 h | metabolized | catalyzed the oxidation of nopaline | faster reaction | 18 to 24 | approximately 1.0 hours | approximately 2 hours | approximately 30 minutes | too slow to be readily measured | did not change | 
N=C(N)NCCC[C@@H](C(=O)O)N1C(=O)CC[C@@H]1C(=O)O [Pyronopaline, N-(4-((aminoiminomethyl)amino)-1S-carboxybutyl)-2-pyrrolidone-5R-carboxylic acid] |  | 34.5 (≈ 121 mM) |  |  |  |  |  | 3.1 h | 3.1 h | metabolized |  |  |  |  |  |  |  | did not change | No significant reverse reaction
